Data: patent publication US20170029355A1, “LABILE ESTERS OF AGROCHEMICALS FOR CONTROLLED RELEASE AND REDUCTION OF OFF-SITE MOVEMENT” (Monsanto Technology LLC, priority 2011, published 2017)

How the values were obtained:
[1] = In vitro photo-release and hydrolytic release of dicamba in an aqueous medium (Example 36); type: physicochemical; conditions: 0.01 mM (0.005 mM for diesters)
Procedure: This Example describes the determination of photo-lability and hydrolytic lability of dicamba esters in an aqueous medium. 1 mM solutions of the esters were prepared in acetonitrile (or […] solutions of dicamba diesters). The solutions were then diluted with deionized water to a concentration of 0.01 mM (or 0.005 mM for diesters). The solutions were then transferred to quartz tubes and amber bottles and held in a growth chamber by the procedure of Example 26. A 14-hour day was generally used at a constant temperature of 35° C. Hydrolytic activity was assessed by measuring the increase in dicamba concentration after day zero in the amber (dark) bottles. […] Photolysis manifested itself as increased conversion in the quartz tubes compared to the dark control.
This Example provides the results of an aqueous lability test following the protocol of Example 35 for several dicamba esters which convert to dicamba primarily by hydrolysis. As shown by the results in the table below, conversion of the dark controls generally equaled or exceeded conversion in the photolysis solutions.

velvetleaf [2] = experiment: Greenhouse post-emergent control of velvetleaf by emulsifiable concentrates (Example 37); type: in vivo; conditions: Abutilon theophrasti, post-emergence, 504 h, greenhouse, Example 37; for pest or weed control at 140 g/ha: read-out: % Control of velvetleaf, 140 g/ha; for pest or weed control at 280 g/ha: read-out: % Control of velvetleaf, 280 g/ha; for pest or weed control at 420 g/ha: read-out: % Control of velvetleaf, 420 g/ha; for pest or weed control at 560 g/ha: read-out: % Control of velvetleaf, 560 g/ha
Procedure: (§1) The efficacy of some photo-labile ester formulations from Example 28 for post-emergent control of velvetleaf was tested in the greenhouse. All formulations were tested at rates of 140, 280, 420, and 560 g dicamba equivalent per hectare rates and compared to the diglycolamine salt of dicamba (CLARITY®) at the same rates and untreated control plants. The velvetleaf plants were 10-15 cm in height at the time of spraying. Percent control was evaluated three weeks after treatment.
The methodology of Example 29 was used to evaluate the efficacy of several esters of dicamba which convert to dicamba by hydrolysis for post-emergent control of velvetleaf as emulsifiable concentrate formulations.

Euphorbia species = experiment: Field testing for post-emergent activity in the Southern Hemisphere (Example 39); type: in vivo; conditions: 9 as suspension concentrate, other esters as emulsifiable concentrates
Procedure: The primary weeds were Euphorbia species. Ester 9 was tested as a suspension concentrate using the formulation of Example 33 The other esters were tested as emulsifiable concentrates having the formulations shown in the table below. Akzo Nobel SPONTO EC 334 and SPONTO EC 336 along with SURFONIC CO-54 and […] (Huntsman) were used as emulsifiers and Aromatic 200 (A 200; Exxon) was used as the solvent. […] The diglycolamine salt of dicamba (CLARITYTM) was used as a comparator.

[3] = Solubility of the esters (statements of the description); type: physicochemical; conditions: qualitative
[4] = Photolysis / cleavage of the esters to dicamba (statements of the description); type: physicochemical; conditions: qualitative
From the text: The efficacy of the photolabile esters can be assayed in vitro, or in greenhouse or field experiments. A useful in vitro assay for post-emergent activity involves photolysis of a dilute solution of the esters using simulated sunlight. This is conveniently achieved by photolysis of a solution of the ester in an organic solvent which is miscible with water and to which some water has been added. As described in the Examples, photolysis in acetonitrile or tetrahydrofuran containing 10% water by weight is effective. Low concentrations of the ester should be used so that the entire volume is exposed to sunlight. Since the maximum extinction coefficient of the typical esters above 220 nm is in the range of 1000-10,000 M^−1 cm^−1, a concentration of 0.1 mM is effective. Photolysis in a quartz tube exposed to simulated or actual sunlight is a typical protocol.

broadleaf weeds = experiment: Control of broadleaf weeds by ester concentrates (statements of the description); type: in vivo; conditions: emulsifiable and suspension concentrates; Sesbania macrocarpa, morning glory, velvetleaf, Palmer amaranth, fat hen, sicklepod
velvetleaf [5] = experiment: Greenhouse post-emergent control of velvetleaf by emulsifiable concentrates (Example 30); type: in vivo
Procedure: as §1
The methodology of Example 29 was used to evaluate the efficacy of several photo-labile esters of dicamba for post-emergent control of velvetleaf as emulsifiable concentrate formulations described in Example 28.

hemp sesbania = experiment: Field testing of emulsifiable concentrates, post-emergent control (Example 40); type: in vivo
Procedure: (§2) Three dicamba esters, 30a, 32a, and 36a, were formulated as emulsifiable concentrates for field testing. All surfactants are commercial materials from Stepan.
(§3) The formulations were tested in the field. Locations and timing were identical for the three esters, but differed slightly for the diglycolamine control. The esters were compared to the diglycolamine salt of dicamba (CLARITY™) for post-emergent control of three broadleaf weeds: velvetleaf, morning glory, and hemp sesbania. Rates of 280 and 560 g dicamba acid equivalent per hectare were used.

morning glory = experiment: as above; type: in vivo
Procedure: as §2, §3

velvetleaf [6] = experiment: as above; type: in vivo
Procedure: as §2, §3

[7] = 280 g dicamba acid equivalent per hectare
[8] = 560 g dicamba acid equivalent per hectare

Conversion to Dicamba, Dark, Day 0 ([1]; amber (dark) bottle) | Conversion to Dicamba, Dark, Day 1 ([1]; amber (dark) bottle) | Conversion to Dicamba, Dark, Day 2 ([1]; amber (dark) bottle) | Conversion to Dicamba, Dark, Day 3 ([1]; amber (dark) bottle) | Conversion to Dicamba, Dark, Day 4 ([1]; amber (dark) bottle) | Conversion to Dicamba, Dark, Day 7 ([1]; amber (dark) bottle) | Conversion to Dicamba, Light, Day 0 ([1]; quartz tube) | Conversion to Dicamba, Light, Day 1 ([1]; quartz tube) | Conversion to Dicamba, Light, Day 2 ([1]; quartz tube) | Conversion to Dicamba, Light, Day 3 ([1]; quartz tube) | Conversion to Dicamba, Light, Day 4 ([1]; quartz tube) | Conversion to Dicamba, Light, Day 7 ([1]; quartz tube) | solubility, in words [3] | SMILES | photolysis / photo-release of dicamba, in words [4] | further results
6% | 16% | 26% | 35% | 41% | 49% | 6% | 18% | 26% | 33% | 36% | 42% | readily soluble in organic solvents | COc1c(Cl)ccc(Cl)c1C(=O)Oc1ccc(OC(=O)c2c(Cl)ccc(Cl)c2OC)nn1 [Ester 17, Maleic Hydrazide Diester of Dicamba] | – | Conversion to Dicamba, Dark, Day 14 ([1]; amber (dark) bottle): 60%; Conversion to Dicamba, Light, Day 14 ([1]; quartz tube): 53%; pest or weed control at 140 g/ha (velvetleaf [2]): 23.3%; pest or weed control at 280 g/ha (velvetleaf [2]): 41.7%; pest or weed control at 420 g/ha (velvetleaf [2]): 75%; pest or weed control at 560 g/ha (velvetleaf [2]): 73.3%; % control, 0.25 lb/ac (0.28 kg/hectare) (Euphorbia species; 0.25 lb dicamba a.e. per acre): 41%; % control, 0.50 lb/ac (0.56 kg/hectare) (Euphorbia species; 0.50 lb dicamba a.e. per acre): 53%; cleavage to form dicamba, in words [4]: undergo efficient cleavage to form dicamba; control of a number of broadleaf weeds in field testing, in words (broadleaf weeds): proven effective
– | – | – | – | – | – | – | – | – | – | – | – | – | COc1c(Cl)ccc(Cl)c1C(=O)OCCOCc1ccccc1[N+](=O)[O-] [Ester 4, 2-(2-Nitrobenzoxy)Ethanol Ester of Dicamba] | the rate of photolysis decreases | % Control of velvetleaf, 140 g/ha (velvetleaf [5]): 32%; % Control of velvetleaf, 280 g/ha (velvetleaf [5]): 52%; % Control of velvetleaf, 420 g/ha (velvetleaf [5]): 50%; % Control of velvetleaf, 560 g/ha (velvetleaf [5]): 51%
– | – | – | – | – | – | – | – | – | – | – | – | highly insoluble | COc1c(Cl)ccc(Cl)c1C(=O)Oc1nnc(OC(=O)c2c(Cl)ccc(Cl)c2OC)c2ccccc12 [Ester 18, Phthalhydrazide Diester of Dicamba] | – | cleavage to form dicamba, in words [4]: undergo efficient cleavage to form dicamba
– | – | – | – | – | – | – | – | – | – | – | – | – | COc1c(Cl)ccc(Cl)c1C(=O)OCCOc1ccccc1[N+](=O)[O-] [Ester 3] | the rate of photolysis decreases | % Control of velvetleaf, 140 g/ha (velvetleaf [5]): 36%; % Control of velvetleaf, 280 g/ha (velvetleaf [5]): 57%; % Control of velvetleaf, 420 g/ha (velvetleaf [5]): 40%; % Control of velvetleaf, 560 g/ha (velvetleaf [5]): 43%
– | – | – | – | – | – | – | – | – | – | – | – | significantly less soluble than 1a | COc1cc(COC(=O)c2c(Cl)ccc(Cl)c2OC)c([N+](=O)[O-])cc1OC [Ester 1b, 6-nitroveratryl ester of dicamba] | – | –
– | – | – | – | – | – | – | – | – | – | – | – | – | COc1c(Cl)ccc(Cl)c1C(=O)Oc1c(C)cc(C)cc1C(C)(C)C [Ester 21] | undergo photo-release of dicamba in vitro | –
20% | 59% | 61% | 60% | 60% | 65% | 20% | 57% | 60% | 58% | 59% | 63% | – | COc1c(Cl)ccc(Cl)c1C(=O)Oc1nc(C(C)(C)C)cc(C(C)(C)C)c1C#N [Ester 36a] | – | Conversion to Dicamba, Dark, Day 21 ([1]; amber (dark) bottle): 66%; Conversion to Dicamba, Light, Day 21 ([1]; quartz tube): 65%; pest or weed control at 140 g/ha (velvetleaf [2]): 15.8%; pest or weed control at 280 g/ha (velvetleaf [2]): 26.7%; pest or weed control at 420 g/ha (velvetleaf [2]): 32.5%; pest or weed control at 560 g/ha (velvetleaf [2]): 66.7%; % control 19 days after treatment, 280 g/ha, Hemp sesbania (hemp sesbania; [7]): 82 ± 10%; % control 19 days after treatment, 560 g/ha, Hemp sesbania (hemp sesbania; [8]): 98 ± 2%; % control 19 days after treatment, 280 g/ha, Morning glory (morning glory; [7]): 83 ± 4%; % control 19 days after treatment, 560 g/ha, Morning glory (morning glory; [8]): 93 ± 5%; % control 19 days after treatment, 280 g/ha, Velvetleaf (velvetleaf [6]; [7]): 72 ± 25%; % control 19 days after treatment, 560 g/ha, Velvetleaf (velvetleaf [6]; [8]): 84 ± 26%; control of a number of broadleaf weeds in field testing, in words (broadleaf weeds): proven effective
– | – | – | – | – | – | – | – | – | – | – | – | – | COc1c(Cl)ccc(Cl)c1C(=O)OCc1cccc([N+](=O)[O-])c1 [Ester 1c, 3-nitrobenzyl ester of dicamba] | slower and less efficient photolysis than the 2-nitrobenzyl ester | –

SMILES | Conversion to Dicamba, Dark, Day 0 ([1]; amber (dark) bottle) | Conversion to Dicamba, Dark, Day 1 ([1]; amber (dark) bottle) | Conversion to Dicamba, Dark, Day 2 ([1]; amber (dark) bottle) | Conversion to Dicamba, Dark, Day 3 ([1]; amber (dark) bottle) | Conversion to Dicamba, Dark, Day 4 ([1]; amber (dark) bottle) | Conversion to Dicamba, Dark, Day 7 ([1]; amber (dark) bottle) | Conversion to Dicamba, Light, Day 0 ([1]; quartz tube) | Conversion to Dicamba, Light, Day 1 ([1]; quartz tube) | Conversion to Dicamba, Light, Day 2 ([1]; quartz tube) | Conversion to Dicamba, Light, Day 3 ([1]; quartz tube) | Conversion to Dicamba, Light, Day 4 ([1]; quartz tube) | Conversion to Dicamba, Light, Day 7 ([1]; quartz tube) | solubility, in words [3] | photolysis / photo-release of dicamba, in words [4] | further results
COc1c(Cl)ccc(Cl)c1C(=O)Oc1ccc(=O)n(CCC#N)n1 [Ester 34a] | 3% | 9% | 14% | 18% | 23% | 38% | 3% | 10% | 14% | 16% | 20% | 29% | insoluble solid | – | Conversion to Dicamba, Dark, Day 14 ([1]; amber (dark) bottle): 56%; Conversion to Dicamba, Dark, Day 21 ([1]; amber (dark) bottle): 71%; Conversion to Dicamba, Dark, Day 28 ([1]; amber (dark) bottle, Day 28): 87%; Conversion to Dicamba, Light, Day 14 ([1]; quartz tube): 48%; Conversion to Dicamba, Light, Day 21 ([1]; quartz tube): 60%; Conversion to Dicamba, Light, Day 28 ([1]; quartz tube, Day 28): 71%
